The text below walks through data of paper PMC11587651, “Increased cytoplasmic expression of PETase enzymes in E. coli” (Microbial Cell Factories, 2024).

The target of this assay is T1, HiC (Mycothermus thermophilus, UniProt A0A075B5G4).
T1 construct: commercial enzyme Novozym 51032 (Strem), used as supplied
T1 sequence (A0A075B5G4 1-194): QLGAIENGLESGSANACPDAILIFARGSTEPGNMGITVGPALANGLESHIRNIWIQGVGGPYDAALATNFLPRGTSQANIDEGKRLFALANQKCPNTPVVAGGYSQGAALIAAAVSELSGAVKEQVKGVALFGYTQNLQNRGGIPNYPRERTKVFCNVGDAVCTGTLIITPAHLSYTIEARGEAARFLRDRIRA
Put plainly: HPLC of BHET to MHET conversion. Type of assay: biochemical. Conditions: 24% acetonitrile, 76% 100 mM potassium phosphate pH 7, 40 °C, 0.1 g HiC per g BHET; product MHET.

For the compound `O=C(OCCO)c1ccc(C(=O)OCCO)cc1` [bis(2-hydroxyethyl) terephthalic acid], the “HPLC of BHET to MHET conversion” value is listed as “enzymatic hydrolysis of BHET using Humicola insolens cutinase (HiC”.
